Read-outs that look alike come from different tables or passages of the source.
Columns and labels:
[1] = test system: MDCK cells expressing OCT2, MATE1 and MATE2K; test: LDH cytotoxicity of oxaliplatin in MDCK-II triple-transporter model; details: for effect on oxaliplatin induced cytotoxicity in OCT2 expressing cells: buflomedil 3 and 6 μM, dolutegravir 10 μM, erlotinib 6 μM, cimetidine 6 μM, FIG. 6
Protocol: A triple-transporter model for OCT2(SLC22A2), MATE1(SLC47A1), and MATE2-K(SLC47A2) was created by transfecting fully confluent MDCK-II cell monolayers with DNA mixture containing the plasmids encoding OCT2, MATE1, and MATE-2K at concentrations of 40, 15, and 5 ng/μl, respectively. The OCT2 was expressed on the basolateral cell membrane, and MATE1 and MATE2-K were expressed on the apical side of the cells. […] The apical medium was adjusted to pH 6.7 with 25 mM of 2-(N-morpholino) ethanesulfonic acid (MES).
After removal of the media, a drug-free medium was added in both sides. After incubation 24 hours, the medium was collected, and the lactate dehydrogenase (LDH) activity in the medium was measured using an LDH cytotoxicity assay kit (G-Biosciences. St. Louis, Mo.; or Biochain, Newark, Calif.), according to the manufacturers' instructions. Cytotoxicity was evaluated by measuring the LDH activity in the medium.
Cytotoxicity was tested using the same procedure described above.

OCT2 [2] = biological target: T1, OCT2 (Homo sapiens, UniProt O15244); test: Inhibition of OCT2-mediated metformin uptake in transfected MDCK-II cells
T1 sequence (O15244 1-555): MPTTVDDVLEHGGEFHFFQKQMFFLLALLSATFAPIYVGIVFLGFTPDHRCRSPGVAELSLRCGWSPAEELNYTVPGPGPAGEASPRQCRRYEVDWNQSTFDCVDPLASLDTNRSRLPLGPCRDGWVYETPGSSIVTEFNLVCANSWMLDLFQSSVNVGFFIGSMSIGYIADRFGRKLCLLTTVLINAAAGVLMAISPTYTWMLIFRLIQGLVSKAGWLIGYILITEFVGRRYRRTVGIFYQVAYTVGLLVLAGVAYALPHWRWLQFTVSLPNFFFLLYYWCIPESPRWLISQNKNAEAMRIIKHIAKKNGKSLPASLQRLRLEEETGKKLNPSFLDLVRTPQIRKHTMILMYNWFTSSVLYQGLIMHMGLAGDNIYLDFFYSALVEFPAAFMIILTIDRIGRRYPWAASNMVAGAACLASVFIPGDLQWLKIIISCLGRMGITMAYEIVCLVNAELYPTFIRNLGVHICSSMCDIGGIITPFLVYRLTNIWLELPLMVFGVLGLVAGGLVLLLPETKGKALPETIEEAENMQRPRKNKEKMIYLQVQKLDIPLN

OCT2 [3] = biological target: T1, OCT2; test: Inhibition of OCT2-mediated oxaliplatin transport in 100% human serum or HBSS containing 4% BSA (IC50,app); details: for transporter preference in inhibiting oxaliplatin transport: serum or 4% BSA
OCT2 [4] = biological target: T1, OCT2; details: OCT2-mediated uptake; ASP+ 5 μM in HBSS; from Kido Y et al. J Med Chem 2011; cited from earlier work
OCT2 [5] = biological target: T1, OCT2; test: Inhibition of OCT2-mediated oxaliplatin uptake in transfected MDCK-II cells (protein-free HBSS)
From the text: Fully confluent MDCK cell monolayers were transfected with either cDNA plasmids encoding the human transporter to be tested or a GFP control. […] The cells were then washed with ice-cold PBS and lysed with 50:50 acetonitrile:H2O. Intracellular content of the substrate was quantified by LC/MS/MS or a MicroBeta radiometric plate reader.

[6] = cited from earlier work; for Plasma protein binding (%): published data
[7] = human, in vivo
OCT2 [8] = biological target: T1, OCT2; test: Inhibition of OCT2-mediated ASP+ uptake (Kido et al., Giacomini group); details: human, cell line expressing human OCT2 (cell line not given), probe ASP+ 5 μM
HepG2 cells = test: Anti-proliferation study (SRB assay) in HepG2 cells; details: FIG. 10
Protocol: (§1) The potency was determined by the sulforhodamine B (SRB) assay in 96-well plates. […] Seeding density was 3000 cells/well for both cell lines.

[9] = Published clinical pharmacokinetic data; details: from published Cmax and protein binding
[10] = test system: cells co-expressing OCT2 and MATE1; test: Intracellular oxaliplatin content in cells co-expressing OCT2 and MATE1; type: cell-based; details: oxaliplatin 100 μM in 4% BSA HBSS, 90 min
From the text: In most naturally occurring cells, uptake transporters co-exist with efflux transporters. It is the interplay between the uptake and efflux transporters that determines the net intracellular accumulation of a substrate. One example is in the proximal tubule epithelial cells in the kidney, where the basolaterally expressed transporters, mainly OCT2, work in concert with the apically expressed MATE1 and MATE2K [5]. […] Cells with single expression of OCT2 or GFP mock were also used as a control.

HT-29 cells = test: Anti-proliferation study (SRB assay) in HT-29 cells; details: co-treatment; FIG. 11
Protocol: as §1

[11] = test system: Balb/c mice exposed to chronic treatment with Oxaliplatin; test: Caudal nerve conduction study in chronic oxaliplatin neuropathy model; type: in vivo, mouse; details: OXA 3.5 mg/kg iv, 8 cycles ± BFMD 30 mg/kg ip + 15 mg/kg iv
Protocol: The development of peripheral neuropathy after chronic administration of drugs was assessed by evaluating the nerve conduction velocity (NCV) along caudal and digital nerve using an electromyography apparatus (Myto2 ABN Neuro, Firenze, Italy). Caudal NCV was determined by placing a couple of recording needle electrodes at the base of the tail and a couple of stimulating needle electrodes 3.5 cm distally to the recording points. Similarly, the digital NCV was determined by placing the recording electrodes close to the ankle bone and the stimulating electrodes close to the fourth toe near the digital nerve. The intensity, duration and frequency of stimulation were set up in order to obtain optimal results. All the neurophysiological determinations were performed under standard conditions in a temperature-controlled room (22+/−2° C.) and the animal under isoflurane anesthesia along the whole procedure with continuous monitoring of vital signs.

[12] = cited from earlier work
[13] = test system: Balb/c mice exposed to chronic treatment with Oxaliplatin; test: Dynamic Plantar Aesthesiometer Test in chronic oxaliplatin neuropathy model; type: in vivo, mouse; details: OXA 3.5 mg/kg iv, 8 cycles ± BFMD 30 mg/kg ip + 15 mg/kg iv
Protocol: The Dynamic Plantar Aesthesiometer Test was used to determine the alterations in mechanical pain perception and their changes due to pharmacological treatment. Mice were accustomed to the device 3 days before performing the tests after a 1 hour acclimatization period followed by testing. The mechanical nociceptive threshold was assessed using a Dynamic Aesthesiometer Test (model 37450, Ugo Basile Biological Instruments, Comerio. Italy), which generated a linearly increasing mechanical force. At each time point, after the acclimatization period, a servo-controlled mechanical stimulus (a pointed metallic filament, 0.5-mm diameter) was applied to the plantar surface of the hind paw, which exerted a progressively increasing punctuate pressure, reaching up to 15 g within 15 seconds. The pressure evoking a clear voluntary hind-paw withdrawal response was recorded automatically and taken as representing the mechanical nociceptive threshold index. The mechanical threshold was always assessed alternatively on each side every 2 minutes on 3 occasions to yield a mean value. The results represent the maximal pressure (expressed in grams) tolerated by the animals. There was an upper limit cutoff of 30 seconds, after which the mechanical stimulus was automatically terminated.

[14] = Plasma levels of buflomedil and oxaliplatin in the chronic model; type: in vivo, mouse; details: 15 minutes after the 8th cycle
Protocol: At baseline (before drug treatment) and at the end of treatment, caudal nerve conduction study (NCS), behavioral tests (Dynamic and Cold Plate), histopathology study were performed. Serum samples were collected at the end of treatment.

[15] = test system: Balb/c mice exposed to chronic treatment with Oxaliplatin; test: Cold Plate Test in chronic oxaliplatin neuropathy model; type: in vivo, mouse; details: OXA 3.5 mg/kg iv ± BFMD 30 mg/kg ip + 15 mg/kg iv
Protocol: Cold Plate Test was used to determine the alterations in cold temperature related pain perception and their changes due to pharmacological treatment. Cold Plate Test was performed by using an apparatus (35100—Hot/Cold Plate. Ugo Basile instruments) composed by a Plexiglas cylinder and a thermostatic plate, able to reach variable temperatures. The mice were placed on the plate set at +4° C., free to move and walk. Two blinded experimenters simultaneously determine the number of pain signs (e.g. jumping, licking, etc.) in a trial of 5 minutes.

[16] = test system: Balb/c mice exposed to chronic treatment with Oxaliplatin; test: Morphometry and histopathology of DRG neurons in chronic oxaliplatin neuropathy model; type: in vivo, mouse
From the text: The investigator was blind to the nerve and DRG conditions for these analyses. Three animals from each group were sacrificed four days after the last oxaliplatin dose. The left sciatic nerves and the L4-L5 DRGs were harvested and processed following previously reported protocols, resin embedded and sectioned for light and electron microscope analysis. For the light microscopy analysis, 1 μm semithin sections were stained with toluidine blue and examined using a Nikon Eclipse E200 light microscope (Nikon, Firenze, Italy). For the electron microscopy analysis, ultrathin sections (80 nm) counterstained with uranyl acetate and lead citrate, were examined with a Philips CM 10 transmission electron microscope (Philips, Eindhoven, Netherlands).
The investigator was blind to the experimental conditions of the tissue for these experiments. One micron thick semithin sections stained with toluidine blue were used for morphometric examination of the DRGs from control (n=3) and oxaliplatin-treated mice (n=3). (Renn et al. Molecular Pain 2011, 7:29). Only the cells where the nucleolus was included in the section plane of 50 μm-spaced out sections were considered to avoid the overlapping of the same cell bodies and they were analyzed with computer-assisted image analysis (ImageJ, NIH) to measure the soma and nucleolus size of at least 300 DRG neurons per mouse.

[17] = human, MDCK-II cells transfected with human OCT2, probe oxaliplatin 10 μM

## CN/C(=N/CCSCc1nc[nH]c1C)NC#N [Cimetidine]
[1]
  effect on oxaliplatin induced cytotoxicity in OCT2 expressing cells: did not reduce oxaliplatin cytotoxicity
OCT2 [2]
  IC50: 57.6 ± 6.9 µM
OCT2 [3]; IC50,app (μM), apparent inhibition constant in 100% human serum or HBSS containing 4% BSA, OCT2-mediated oxaliplatin uptake
  IC50: 36.8 µM
OCT2 [3]; OCT2 IC50, app (μM), 100% human serum or HBSS containing 4% BSA, 20 μM or 100 μM oxaliplatin
  IC50: 36.8 ± 13.6 µM
OCT2 [3]
  transporter preference in inhibiting oxaliplatin transport: even more preference towards inhibiting oxaliplatin transport through MATE1
OCT2 [4]
  Inhibition % @ 20 μM (substrate ASP+): 43%
OCT2 [5]
  IC50: 9.71 µM
OCT2 [5]; human
  inhibition at 30 min, 5 μM: 34%
  inhibition at 30 min, 50 μM: 83%
OCT2 [5]; human, IC50 (μM) (substrate Oxaliplatin)
  potency estimated from few doses at 30 min: 9.7 µM
[6]
  Plasma protein binding (%): 20%
[7]
  Plasma peak unbound concentration Cmax,u: 9.60 µM
OCT2 [8]
  potency estimated from few doses: 26.4 µM
HepG2 cells
  effect on anti-tumor potency of oxaliplatin in HepG2: nor cimetidine

## C#Cc1cccc(Nc2ncnc3cc(OCCOC)c(OCCOC)cc23)c1 [Erlotinib]
[1]; 6 μM, without oxaliplatin, FIG. 6B
  cytotoxicity of the inhibitor itself: showed cytotoxicity itself without adding oxaliplatin
[1]
  effect on oxaliplatin induced cytotoxicity in OCT2 expressing cells: its EC50 value could not be obtained due to an ambiguous fitting
[9]
  Plasma peak unbound concentration Cmax,u: 0.38 µM
[10]
  cellular accumulation of oxaliplatin in cells co-expressing OCT2 and MATE1: reduced cellular accumulation of oxaliplatin
OCT2 [3]
  transporter preference in inhibiting oxaliplatin transport: potent in suppressing OCT1 as well as OCT2
OCT2 [5]; [17]
  inhibition at 30 min, 5 μM: 93%
  inhibition at 30 min, 50 μM: 106%
[6]; 150 mg po, day 24
  Mean Cmax: 2120 ng/mL
  Mean T1/2: 18.2 h
[6]; 150 mg po, single dose
  Mean Cmax: 1140 ng/mL
  Mean T1/2: 20 h
[6]
  Plasma protein binding (%): 93%
[6]; read-out: Mean Cmax, 150 mg po, day 24
  Cmax: 5.4 µM
[6]; read-out: Mean Cmax, 150 mg po, single dose
  Cmax: 2.9 µM
[6]; read-out: Plasma peak total concentration Cmax, published clinical pharmacokinetic data
  Cmax: 5.4 µM
HT-29 cells
  effect on cisplatin anti-proliferation potency in HT-29: ignorable impact on cisplatin cytotoxicity

## O=C(O)C(=O)O.[NH-][C@@H]1CCCC[C@H]1[NH-].[Pt+2] [Oxaliplatin]
[11]
  caudal nerve action potential amplitude: significant decrease in caudal amplitude
  caudal nerve conduction velocity: significant reduction in caudal nerve conduction velocity vs. control mice
[12]; cumulative doses 510-765 mg/m^2
  patients with severe PN (Grade 3 or higher): up to 10%
[12]; cumulative doses above 1000 mg/m^2, Argriou 2012
  patients developing severe PN: approximately 50%
[13]
  mechanical allodynia, Dynamic Aesthesiometer Test at the end of treatment: development of mechanical allodynia with a reduction in the latency until withdrawal
[14]
  pharmacokinetic interaction between BFMD and OXA (plasma levels): unaffected by the presence of BFMD
[15]; 3 cycles
  Cold Plate Test pain signs after third injection: significant increase in pain signs versus CTRL and all groups of treatment
[15]; 8 cycles
  Cold Plate Test pain signs at the end of treatment (eight injections): significant increase in pain signs versus CTRL and BFMD
[16]; OXA 3.5 mg/kg iv twice a week for 4 weeks (8 cycles) ± BFMD 30 mg/kg ip + 15 mg/kg iv
  area of DRG neuron cell bodies and nucleoli (morphometry): significant decrease in the area
[16]; OXA 3.5 mg/kg iv, 8 cycles ± BFMD 30 mg/kg ip + 15 mg/kg iv
  DRG histopathology (light and electron microscopy): high incidence of multinucleolated cell bodies with eccentric nucleoli

Source: patent US11197862B2, “Methods of preventing toxicity of platinum drugs” (XOMICS BIOPHARMA, INC., priority 2015, dated 2021)
